Assay results reported in US10813944B2, “Cyclodextrins as procoagulants” (STICHTING SANQUIN BLOEDVOORZIENING, priority 2016, dated 2020).

How the values were obtained:
[1] = system: mice anticoagulated with rivaroxaban; test: In vivo saphenous vein bleeding model in mice anticoagulated with rivaroxaban
Procedure: FIG. 29: In vivo analysis of procoagulant potential of OK-1111 and OKL-1147. Except for controls, animals were treated with rivaroxaban for 4 days and cyclodextrins were administered 5 min prior bleeding assay.
All animal protocols were approved by the Institutional Animal Care and Use Committee of the University of North Carolina. C57BL6/J mice were purchased from Charles Rivers Laboratories (Willmington, Mass.). Bleeding studies were done essentially as previously described Pastoft et al. (Haemophilia 2012; 18:782-8). Mice were anesthetized with isoflurane throughout all procedures. The hair on the ventral side of both hind limbs was removed. The animals were placed supine on a temperature and ECG monitoring board. The paws were gently restrained by looping soft polyethylene tubing around them and attaching the tubing to the ECG board. The skin on the left and right ventral hind limb was incised which exposes a length of the saphenous neurovascular bundle; the bundle was covered with normal saline to prevent drying. To assess haemostasis, the right saphenous vein was transected by piercing it with a 23-G needle followed by a longitudinal incision made in the distal portion of the vessel. Blood was gently wicked away until haemostasis occurred. The clot was then removed to restart bleeding and the blood was again wicked away until haemostasis occurs again. Clot disruption was repeated after every incidence of haemostasis for 30 minutes. Mice were fed chow that contained 0.1 mg rivaroxaban per g of chow. The mice were on this diet for 4 days to allow them to reach a steady state. Cyclodextrins were administered by a tail vein injection 5 minutes before the start of the bleeding assay. Two parameters were measured: 1) the number of times that haemostasis occurs in a 30 minute period, and 2) the time required for each haemostasis.

[2] = system: thrombin generation in pooled normal plasma; test: Calibrated Automated Thrombogram thrombin generation assay in pooled normal plasma; assay type: biochemical, human; settings: no anticoagulant; cyclodextrin 100 μM unless otherwise indicated; 1 pM TF
Procedure: (§1) FIGS. 3-8, 12, 14-19 and 22-27: Pooled normal plasma was spiked with cyclodextrins (100 μM, unless otherwise indicated) and anticoagulants. The concentrations of the anticoagulants were 100 ng/ml for dabigatran (A), 100 ng/ml for rivaroxaban (B), 60 ng/ml for apixaban (C), 60 ng/ml for edoxaban (D). The plasmas were subjected to thrombin generation analysis as described in the Materials and Methods section with 1 pM tissue factor (TF) as initiator of coagulation.
(§2) The Calibrated Automated Thrombogram® assays the generation of thrombin in clotting plasma using a microtiter plate reading fluorometer (Fluoroskan Ascent, ThermoLab systems, Helsinki, Finland) and Thrombinoscope® software (Thrombinoscope BV, Maastricht, The Netherlands). The assay was carried out as described by Hemker et al. (Pathofysiol. IIaemost. Thromb. 2003, 33, 4-15), and the Thrombinoscope® manual. Coagulation was triggered by recalcification in the presence of 1 or 5 pM recombinant human tissue factor (Innovin®, Siemens, Marburg, Germany), 4 μM phospholipids, and 417 μM fluorogenic substrate Z-Gly-Gly-Arg-AMC (Bachem, Bubendorf, Switzerland). Fluorescence was monitored using the Fluoroskan Ascent fluorometer (ThermoLabsystems, Helsinki, Finland), and the lag time, peak thrombin, velocity index and area under the curve (ETP) were calculated using the Thrombinoscope® software (Thrombinoscope BV).
Thrombin generation analyses were performed in pooled normal plasma with and without the addition of anticoagulants.

[3] = system: plasma deficient in coagulation factor VIII; test: Thrombin generation assay in plasma deficient in coagulation factor VIII; assay type: biochemical, human
Procedure: FIG. 20: Plasma deficient in coagulation factor VIII was spiked with cyclodextrin OKL-1111 (A), OKL-1180 (B), and OKL-1187 (C) at the indicated concentrations.
as §2

[4] = system: plasma deficient in coagulation factor IX; test: Thrombin generation assay in plasma deficient in coagulation factor IX; assay type: biochemical, human
Procedure: as §2

[5] = system: thrombin generation in pooled normal plasma spiked with anticoagulants; test: Thrombin generation assay in pooled normal plasma spiked with anticoagulants; assay type: biochemical, human; settings: for effect on the anticoagulant effect of apixaban: apixaban 60 ng/ml; for effect on the anticoagulant effect of apixaban / effect on the anticoagulant effect of dabigatran / effect on the anticoagulant effect of edoxaban / effect on the anticoagulant effect of rivaroxaban: cyclodextrin 100 μM, 1 pM TF; for effect on the anticoagulant effect of dabigatran: dabigatran 100 ng/ml; for effect on the anticoagulant effect of edoxaban: edoxaban 60 ng/ml; for effect on the anticoagulant effect of rivaroxaban: rivaroxaban 100 ng/ml
Procedure: as §1
FIG. 9: Pooled normal plasma was spiked with OKL-1111 (100 μM, unless otherwise indicated (A)) and anticoagulants (B-E). The concentrations of the anticoagulants were 100 ng/ml for dabigatran (B), 100 ng/ml for rivaroxaban (C), 60 ng/ml for apixaban (D), 60 ng/ml for edoxaban (E). The plasmas were subjected to thrombin generation analysis as described in the Materials and Methods section with 1 pM tissue factor (TF) as initiator of coagulation.
FIG. 10: Pooled normal plasma was spiked with OKL-1111 (100 μM) and anticoagulants (A-F). The concentrations of the anticoagulants were 2 μg/ml for fondaparinux (A), 0.4 U/ml for nadroparin (B), 0.1 U/ml for tinzaparin (C), 0.03 U/ml for unfractionated heparin (UFH) (D), 0.5 U/ml for hirudin (E) and 10 μg/ml for bivalirudin (F). The plasmas were subjected to thrombin generation analysis as described in the Materials and Methods section with 1 pM tissue factor (TF) as initiator of coagulation.
as §2

[6] = system: plasma of a hemophilia A patient containing anti-FVIII antibodies; test: Thrombin generation in plasma of a hemophilia A patient with anti-factor VIII antibodies; assay type: biochemical, human; settings: anti-FVIII antibodies 50 BU
Procedure: FIG. 28: Effect of OKL-1111 (A), OKL-1180 (B) and OKL-1187 (C) on coagulation in plasma of a hemophilia A patient with anti-factor VIII antibodies. BU=Bethesda Units.
as §2
The patient had developed antibodies against factor VIII prior to plasma withdrawal. The plasma contained high levels of anti-FVIII antibodies (50 BU).

Structure (SMILES)	clotting times ([1]; mice fed rivaroxaban for 4 days, cyclodextrin by tail vein injection 5 min before bleeding assay, OKL-1111 dose expected to give 25 μM in plasma)	procoagulant effect in normal plasma [2]	procoagulant effect in factor VIII deficient plasma [3]	procoagulant activity in factor IX deficient plasma [4]	procoagulant effect in plasma containing anticoagulants (not specified / NOACs) [5]	effect on the anticoagulant effect of apixaban [5]	effect on the anticoagulant effect of dabigatran [5]	effect on the anticoagulant effect of edoxaban [5]	effect on the anticoagulant effect of rivaroxaban [5]	thrombin generation in hemophilia A patient plasma [6]	number of clots in 30 minutes ([1]; mice fed rivaroxaban (0.1 mg per g of chow, 4 days), no cyclodextrin, non-anticoagulated about 20-25)	bleeding time ([1]; mice fed rivaroxaban versus non-anticoagulated mouse)
NCC1OC2OC3C(CN)OC(OC4C(CN)OC(OC5C(CN)OC(OC6C(CN)OC(OC7C(CN)OC(OC8C(CN)OC(OC9C(CN)OC(OC1C(O)C2O)C(O)C9O)C(O)C8O)C(O)C7O)C(O)C6O)C(O)C5O)C(O)C4O)C(O)C3O (stereo not drawn) [OKL-1147, reference compound]	without any significant effect	no procoagulant effect	–	–	–	–	–	–	–	–	–	–
O=C(O)CCCCSCC1OC2OC3C(CSCCCCC(=O)O)OC(OC4C(CSCCCCC(=O)O)OC(OC5C(CSCCCCC(=O)O)OC(OC6C(CSCCCCC(=O)O)OC(OC7C(CSCCCCC(=O)O)OC(OC8C(CSCCCCC(=O)O)OC(OC9C(CSCCCCC(=O)O)OC(OC1C(O)C2O)C(O)C9O)C(O)C8O)C(O)C7O)C(O)C6O)C(O)C5O)C(O)C4O)C(O)C3O (stereo not drawn) [OKL-1171]	–	significant procoagulant activity	procoagulant effects	–	–	–	–	–	–	–	–	–
O=C(O)CCCCCCSCC1OC2OC3C(CSCCCCCCC(=O)O)OC(OC4C(CSCCCCCCC(=O)O)OC(OC5C(CSCCCCCCC(=O)O)OC(OC6C(CSCCCCCCC(=O)O)OC(OC7C(CSCCCCCCC(=O)O)OC(OC8C(CSCCCCCCC(=O)O)OC(OC9C(CSCCCCCCC(=O)O)OC(OC1C(O)C2O)C(O)C9O)C(O)C8O)C(O)C7O)C(O)C6O)C(O)C5O)C(O)C4O)C(O)C3O (stereo not drawn) [OKL-1172]	–	significant procoagulant activity	procoagulant effects	procoagulant activity	–	–	–	–	–	–	–	–
OCCCCSCC1OC2OC3C(CSCCCCO)OC(OC4C(CSCCCCO)OC(OC5C(CSCCCCO)OC(OC6C(CSCCCCO)OC(OC7C(CSCCCCO)OC(OC8C(CSCCCCO)OC(OC9C(CSCCCCO)OC(OC1C(O)C2O)C(O)C9O)C(O)C8O)C(O)C7O)C(O)C6O)C(O)C5O)C(O)C4O)C(O)C3O (stereo not drawn) [OKL-1174]	–	strong procoagulant effects	procoagulant effects	procoagulant activity	strong procoagulant effects	–	–	–	–	–	–	–
OCCCSCC1OC2OC3C(CSCCCO)OC(OC4C(CSCCCO)OC(OC5C(CSCCCO)OC(OC6C(CSCCCO)OC(OC7C(CSCCCO)OC(OC8C(CSCCCO)OC(OC1C(O)C2O)C(O)C8O)C(O)C7O)C(O)C6O)C(O)C5O)C(O)C4O)C(O)C3O (stereo not drawn) [OKL-1181]	–	significant procoagulant activity	procoagulant effects	procoagulant activity	–	–	–	–	–	–	–	–
O=C(O)CCCCCSCC1OC2OC3C(CO)OC(OC4C(CO)OC(OC5C(CO)OC(OC6C(CO)OC(OC7C(CO)OC(OC1C(O)C2O)C(O)C7O)C(O)C6O)C(O)C5O)C(O)C4O)C(O)C3O (stereo not drawn) [OKL-1186, Alpha-mono-S—C6-acid]	–	substantial procoagulant effect	–	–	–	antagonized	antagonized	antagonized	antagonized	–	–	–
O=C(O)CCCCCSCC1OC2OC3C(CSCCCCCC(=O)O)OC(OC4C(CSCCCCCC(=O)O)OC(OC5C(CSCCCCCC(=O)O)OC(OC6C(CSCCCCCC(=O)O)OC(OC7C(CSCCCCCC(=O)O)OC(OC1C(O)C2O)C(O)C7O)C(O)C6O)C(O)C5O)C(O)C4O)C(O)C3O (stereo not drawn) [OKL-1187, Alpha-per-S—C6-acid]	–	very strong procoagulant effect	procoagulant effects	–	–	strongly antagonized	strongly antagonized	strongly antagonized	strongly antagonized	concentration-dependently stimulated thrombin generation	–	–
O=C(O)CCCCCCSCC1OC2OC3C(CO)OC(OC4C(CO)OC(OC5C(CO)OC(OC6C(CO)OC(OC7C(CO)OC(OC8C(CO)OC(OC1C(O)C2O)C(O)C8O)C(O)C7O)C(O)C6O)C(O)C5O)C(O)C4O)C(O)C3O (stereo not drawn) [OKL-1188]	–	strong procoagulant effect	procoagulant effects	procoagulant activity	–	antagonized	antagonized	antagonized	antagonized	–	–	–
OCCCCSCC1OC2OC3C(CO)OC(OC4C(CO)OC(OC5C(CO)OC(OC6C(CO)OC(OC7C(CO)OC(OC8C(CO)OC(OC1C(O)C2O)C(O)C8O)C(O)C7O)C(O)C6O)C(O)C5O)C(O)C4O)C(O)C3O (stereo not drawn) [OKL-1189]	–	strong procoagulant activity	procoagulant effects	procoagulant activity	–	strongly antagonized	strongly antagonized	strongly antagonized	strongly antagonized	–	–	–
O=C(O)CCCCCCSCC1OC2OC3C(CO)OC(OC4C(CO)OC(OC5C(CO)OC(OC6C(CO)OC(OC7C(CO)OC(OC8C(CO)OC(OC9C(CO)OC(OC1C(O)C2O)C(O)C9O)C(O)C8O)C(O)C7O)C(O)C6O)C(O)C5O)C(O)C4O)C(O)C3O (stereo not drawn) [OKL-1190]	–	procoagulant effect	–	–	–	antagonized	antagonized	antagonized	antagonized	–	–	–
OCCCCSCC1OC2OC3C(CO)OC(OC4C(CO)OC(OC5C(CO)OC(OC6C(CO)OC(OC7C(CO)OC(OC8C(CO)OC(OC9C(CO)OC(OC1C(O)C2O)C(O)C9O)C(O)C8O)C(O)C7O)C(O)C6O)C(O)C5O)C(O)C4O)C(O)C3O (stereo not drawn) [OKL-1191]	–	Strong Procoagulant Activity	procoagulant effects	procoagulant activity	–	Antagonized	Antagonized	Antagonized	Antagonized	–	–	–
O=C(NC[C@H]1CN(c2ccc(N3CCOCC3=O)cc2)C(=O)O1)c1ccc(Cl)s1 [rivaroxaban]	–	–	–	–	–	–	–	–	–	–	10-13 clots	roughly doubled
